Among the data in US10189839B2, “Tricyclic imidazole compounds as inhibitors of tryptophan hydroxylase” (ACTELION PHARMACEUTICALS LTD, priority 2013, dated 2019) are IC50 values, retold here.

SMILES strings stand for the structures.

One experiment concerns the target T1, full length human TPH1 (Homo sapiens, UniProt P17752).
T1 construct: To generate the enzyme, full length human TPH1 is cloned into the plasmid pET20b(+); made in house; host or cells: E. coli
T1 sequence (P17752 1-444): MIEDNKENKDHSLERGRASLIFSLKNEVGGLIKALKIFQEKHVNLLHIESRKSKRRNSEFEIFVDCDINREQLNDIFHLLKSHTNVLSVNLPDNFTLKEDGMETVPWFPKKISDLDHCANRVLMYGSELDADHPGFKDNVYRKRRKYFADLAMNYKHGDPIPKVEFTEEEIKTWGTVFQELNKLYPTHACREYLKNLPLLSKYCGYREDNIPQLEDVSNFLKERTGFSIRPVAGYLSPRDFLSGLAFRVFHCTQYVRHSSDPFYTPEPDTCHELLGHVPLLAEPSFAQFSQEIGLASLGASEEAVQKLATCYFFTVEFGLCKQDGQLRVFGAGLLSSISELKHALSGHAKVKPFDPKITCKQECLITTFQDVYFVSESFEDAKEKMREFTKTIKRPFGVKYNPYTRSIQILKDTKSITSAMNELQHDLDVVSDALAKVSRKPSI
Description: Biochemical in vitro assay using fluorescence readout (TPH1 enzyme activity). The settings on record: Table 1, mean where determined several times. The method in brief:
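E. coli-expressed full-length human TPH1 (40-80 nM), affinity- and size-exclusion-purified, incubated 60 min at 15° C. in 0.1M Tris-HCl pH 7.6 with 1 mM DTT, 0.2 mg/ml catalase, 100 μM 6-methyltetrahydropterine and 40 μM L-tryptophan. 5-Hydroxy-L-tryptophan read by fluorescence (ex 300/em 540 nm) after HClO4 quench; IC50 versus vehicle, mean where repeated.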
Take `CS(=O)(=O)Nc1ccc(OCC(=O)N2CCc3nc4n(c3C2c2ccc(Cl)cc2F)CCOC4)c(Cl)n1` (centres unmarked) [Example 6.1.2, N-(6-chloro-5-(2-(6-(4-chloro-2-fluorophenyl)-3,4,8,9-tetrahydro-1H-pyrido[4′,3′:4,5]imidazo[2,1-c][1,4]oxazin-7(6H)-yl)-2-oxoethoxy)pyridin-2-yl)methanesulfonamide]: the IC50 (usually the concentration needed to halve the response being measured) amounted to 18 nM.

In the case of `O=C(COc1ccc(N2CCOCC2)cc1Cl)N1CCc2nc3n(c2C1c1ccc(C2CC2)cc1F)CCNC3` (centres unmarked) [Example 5.2.4, 2-(2-chloro-4-morpholinophenoxy)-1-(1-(4-cyclopropyl-2-fluorophenyl)-3,4,6,7,8,9-hexahydropyrido[4′,3′:4,5]imidazo[1,2-a]pyrazin-2(1H)-yl)ethanone], the midpoint of inhibition, the IC50, lay at 24 nM.

With `CCc1nc(NS(C)(=O)=O)ccc1OCC(=O)N1CCc2nc3n(c2C1c1cc(F)c(C)cc1F)CCS3` (centres unmarked) [Example 4.7.1, N-(5-(2-(5-(2,5-difluoro-4-methylphenyl)-2,3,7,8-tetrahydrothiazolo[2′,3′:2,3]imidazo[4,5-c]pyridin-6(5H)-yl)-2-oxoethoxy)-6-ethylpyridin-2-yl)methanesulfonamide], half-maximal inhibition (IC50) was put at 6 nM.

The compound `CCc1nc(NS(C)(=O)=O)ccc1OCC(=O)N1CCc2nc3n(c2C1c1ccc(C)c(F)c1F)CCC3` (centres unmarked) [Example 2.3.1, N-(5-(2-(1-(2,3-difluoro-4-methylphenyl)-3,4,7,8-tetrahydro-1H-pyrrolo[2′,1′:2,3]imidazo[4,5-c]pyridin-2(6H)-yl)-2-oxoethoxy)-6-ethylpyridin-2-yl)methanesulfonamide] returned an IC50 of 8 nM.

As for `CC(=O)N1CCn2c(nc3c2C(c2ncccc2F)N(C(=O)COc2ccc(N4CCOCC4)nc2Cl)CC3)C1` (centres unmarked) [Example 5.10.1, 1-(7-acetyl-1-(3-fluoropyridin-2-yl)-3,4,6,7,8,9-hexahydropyrido[4′,3′:4,5]imidazo[1,2-a]pyrazin-2(1H)-yl)-2-((2-chloro-6-morpholinopyridin-3-yl)oxy)ethanone], the IC50 amounted to 14 nM.

In the case of `CC(=O)N1CCn2c(nc3c2C(c2sccc2F)N(C(=O)COc2ccc(C(=O)N(C)C)nc2Cl)CC3)C1` (centres unmarked) [Example 5.13.2, 5-(2-(7-acetyl-1-(3-fluorothiophen-2-yl)-3,4,6,7,8,9-hexahydropyrido[4′,3′:4,5]imidazo[1,2-a]pyrazin-2(1H)-yl)-2-oxoethoxy)-6-chloro-N,N-dimethylpicolinamide], the IC50 is 24 nM.

`CC(=O)N1CCn2c(nc3c2C(c2ncc(C4CC4)cc2F)N(C(=O)COc2ccc(N4CCOCC4)nc2F)CC3)C1` (centres unmarked) [Example 5.4.8, 1-(7-acetyl-1-(5-cyclopropyl-3-fluoropyridin-2-yl)-3,4,6,7,8,9-hexahydropyrido[4′,3′:4,5]imidazo[1,2-a]pyrazin-2(1H)-yl)-2-((2-fluoro-6-morpholinopyridin-3-yl)oxy)ethanone]: the IC50 worked out at 91 nM.

In turn, `O=C(NC1CC1)c1ccc(OCC(=O)N2CCc3nc4n(c3[C@@H]2c2ccc(C3CC3)cc2F)CCCC4)c(Cl)n1` [Example 1.8.6, (S)-6-chloro-N-cyclopropyl-5-(2-(1-(4-cyclopropyl-2-fluorophenyl)-3,4,6,7,8,9-hexahydroimidazo[1,2-a:5,4-c′]dipyridin-2(1H)-yl)-2-oxoethoxy)picolinamide] registered an IC50 of 9 nM.

Compound `CCc1nc(NS(C)(=O)=O)ccc1OCC(=O)N1CCc2nc3n(c2C1c1sc(C(=O)N(C)C)cc1F)CCCC3` (centres unmarked) [Example 1.4.2, 5-(2-(2-((2-ethyl-6-(methylsulfonamido)pyridin-3-yl)oxy)acetyl)-1,2,3,4,6,7,8,9-octahydroimidazo[1,2-a:5,4-c′]dipyridin-1-yl)-4-fluoro-N,N-dimethylthiophene-2-carboxamide] came in with an IC50 of 38 nM.

In turn, `CC(=O)N1CCn2c(nc3c2C(c2ccc(Cl)cn2)N(C(=O)COc2ccc(N4CCOCC4)nc2Cl)CC3)C1` (centres unmarked) [Example 5.15.1, 1-(7-acetyl-1-(5-chloropyridin-2-yl)-3,4,6,7,8,9-hexahydropyrido[4′,3′:4,5]imidazo[1,2-a]pyrazin-2(1H)-yl)-2-((2-chloro-6-morpholinopyridin-3-yl)oxy)ethanone] yielded an IC50 of 11 nM.

Consider `N#Cc1ccc(OCC(=O)N2CCc3nc4n(c3C2c2ccc(C3CC3)cc2F)CCNC4)c(Cl)c1` (centres unmarked) [Example 5.2.9, 3-chloro-4-(2-(1-(4-cyclopropyl-2-fluorophenyl)-3,4,6,7,8,9-hexahydropyrido[4′,3′:4,5]imidazo[1,2-a]pyrazin-2(1H)-yl)-2-oxoethoxy)benzonitrile], for which the IC50 is 92 nM.

On to `CN(C)C(=O)c1ccc(OCC(=O)N2CCc3nc4n(c3C2c2sccc2F)CCOC4)c(Cl)n1` (centres unmarked) [Example 6.6.2, 6-chloro-5-(2-(6-(3-fluorothiophen-2-yl)-3,4,8,9-tetrahydro-1H-pyrido[4′,3′:4,5]imidazo[2,1-c][1,4]oxazin-7(6H)-yl)-2-oxoethoxy)-N,N-dimethylpicolinamide], for which the IC50 was 29 nM.

With `CS(=O)(=O)Nc1ccc(OCC(=O)N2CCc3nc4n(c3C2c2ccc(C#N)cc2F)CCCC4)c(Cl)n1` (centres unmarked) [Example 1.22.1, N-(6-chloro-5-(2-(1-(4-cyano-2-fluorophenyl)-3,4,6,7,8,9-hexahydroimidazo[1,2-a:5,4-c′]dipyridin-2(1H)-yl)-2-oxoethoxy)pyridin-2-yl)methanesulfonamide], the IC50 is 48 nM.

For the compound `Cc1cc(F)cnc1C1c2c(nc3n2CCCC3)CCN1C(=O)COc1ccc(NS(C)(=O)=O)nc1Cl` (centres unmarked) [Example 1.19.1, N-(6-chloro-5-(2-(1-(5-fluoro-3-methylpyridin-2-yl)-3,4,6,7,8,9-hexahydroimidazo[1,2-a:5,4-c′]dipyridin-2(1H)-yl)-2-oxoethoxy)pyridin-2-yl)methanesulfonamide], the IC50 was 113 nM.

Compound `CCc1nc(C(=O)NC2CC2)ccc1OCC(=O)N1CCc2nc3n(c2[C@@H]1c1sc(C)nc1C)CCCC3` [Example 1.10.17, (R)-N-cyclopropyl-5-(2-(1-(2,4-dimethylthiazol-5-yl)-3,4,6,7,8,9-hexahydroimidazo[1,2-a:5,4-c′]dipyridin-2(1H)-yl)-2-oxoethoxy)-6-ethylpicolinamide] had a 50% inhibitory concentration (IC50) of 5 nM.

`Cc1nc(C)c(C2c3c(nc4n3CCCC4)CCN2C(=O)COc2ccc(C(F)(F)F)cc2Cl)s1` (centres unmarked) [Example 1.10.11, 2-(2-chloro-4-(trifluoromethyl)phenoxy)-1-(1-(2,4-dimethylthiazol-5-yl)-3,4,6,7,8,9-hexahydroimi-dazo[1,2-a:5,4-c′]dipyridin-2(1H)-yl)ethanone] registered an IC50 of 132 nM.

`CCc1nc(NS(C)(=O)=O)ccc1OCC(=O)N1CCc2nc3n(c2C1c1ncc(C2CC2)cc1F)CCS3` (centres unmarked) [Example 4.2.2, N-(5-(2-(5-(5-cyclopropyl-3-fluoropyridin-2-yl)-2,3,7,8-tetrahydrothiazolo[2′,3′:2,3]imidazo[4,5-c]pyridin-6(5H)-yl)-2-oxoethoxy)-6-ethylpyridin-2-yl)methanesulfonamide] displayed an IC50 of 8 nM.

In turn, `CN(C)C(=O)c1ccc(OCC(=O)N2CCc3nc4n(c3C2c2ccc(Cl)cc2F)CCN(C2CC2)C4)c(Cl)n1` (centres unmarked) [Example 5.1.4, 6-chloro-5-(2-(1-(4-chloro-2-fluorophenyl)-7-cyclopropyl-3,4,6,7,8,9-hexahydropyrido[4′,3′:4,5]imidazo[1,2-a]pyrazin-2(1H)-yl)-2-oxoethoxy)-N,N-dimethylpicolinamide] had an IC50 of 41 nM.

On to `CNC(=O)c1ccc(OCC(=O)N2CCc3nc4n(c3C2c2ccc(Cl)cc2F)CCN(C(C)=O)C4)c(Cl)n1` (centres unmarked) [Example 5.1.2, 5-(2-(7-acetyl-1-(4-chloro-2-fluorophenyl)-3,4,6,7,8,9-hexahydropyrido[4′,3′:4,5]imida-zo[1,2-a]pyrazin-2(1H)-yl)-2-oxoethoxy)-6-chloro-N-methylpicolinamide], for which the IC50 worked out at 13 nM.

Regarding `CN(C)C(=O)c1ccc(OCC(=O)N2CCc3nc4n(c3C2c2sc(C(=O)N(C)C)cc2F)CCCC4)c(Cl)n1` (centres unmarked) [Example 1.4.1, 6-chloro-5-(2-(1-(5-(dimethylcarbamoyl)-3-fluoro-thiophen-2-yl)-3,4,6,7,8,9-hexahydroimidazo[1,2-a:5,4-c′]dipyridin-2(1H)-yl)-2-oxoethoxy)-N,N-dimethyl-picolinamide], 55 nM corresponded to half-maximal inhibition (IC50).

`CCN(C)C(=O)c1ccc(OCC(=O)N2CCc3nc4n(c3C2c2ccc(Cl)cc2F)CCCC4)c(Cl)n1` (centres unmarked) [Example 1.1.7, 6-chloro-5-(2-(1-(4-chloro-2-fluorophenyl)-3,4,6,7,8,9-hexahydroimidazo[1,2-a:5,4-c′]dipyridin-2(1H)-yl)-2-oxoethoxy)-N-ethyl-N-methylpicolinamide]: the midpoint of inhibition, the IC50, lay at 25 nM.

The compound `CCc1nc(C(=O)NC2CC2)ccc1OCC(=O)N1CCc2nc3n(c2[C@@H]1c1ncc(C2CC2)cc1F)CCCC3` [Example 1.3.3, (R)-N-cyclopropyl-5-(2-(1-(5-cyclopropyl-3-fluoropyridin-2-yl)-3,4,6,7,8,9-hexahydroimidazo[1,2-a:5,4-c′]dipyridin-2(1H)-yl)-2-oxoethoxy)-6-ethylpicolinamide] had an IC50 of 7 nM.

Staying with this experiment, now noted: Table 2.
With `CN(CCO)c1ccc(OCC(=O)N2CCc3nc4n(c3C2c2ccc(Cl)cc2F)CCCC4)c(Cl)n1` (centres unmarked) [Example 1.1.27], the IC50 was 15 nM.
